Measured values from patent publication EP1377579B1 (Aventis Pharmaceuticals Inc., priority 2000, dated 2002).
Where two headings read alike, the source gives them in different places.

What was measured:
[1] = Bioavailability experiment in mice given single intravenous cassette doses; conditions: for Conc. (ng/ml) in plasma / Conc. in plasma: mice; for Conc. (ng/ml) in plasma: BLQ = below assay quantification limit; for Cls: mice plasma, single intravenous cassette dose; for Conc. in plasma: single 15 mg/kg intravenous cassette dose (3 mg/kg/compound), BLQ = below assay quantification limit (approximately 1 ng/ml)
PC-3 = experiment: In vitro proliferation assay (MTT), PC-3; format: cell-based, human; conditions: Homo sapiens
How it was run: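 Tetrazolium (MTT) reduction measures live cells remaining after 3 days with test compound, following overnight attachment at 1000–2500 cells/well. Dye is taken up in DMSO and read at 570 nm.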

[2] = Cassette #1, single 18 mg/kg intravenous cassette dose, 24 h
[3] = 3 mg/kg/compound (18 mg/kg Total Dose), Cassette #1
[4] = PC-3, MTT assay, value (SD, n) where given, read-out: PC-3 Prostate (IC50 µM)
[5] = Cassette #2, single 18 mg/kg intravenous cassette dose, 24 h
[6] = 3 mg/kg/compound (18 mg/kg Total Dose), Cassette #2
[7] = PC-3, read-out: PC-3 Prostate (IC50 µM)
[8] = 3 mg/kg/compound (15 mg/kg Total Dose), Cassette #3
[9] = 3 mg/kg/compound (15 mg/kg Total Dose), Cassette #4

In the case of `Cl.Cl.N[C@H]1CC[C@H](Nc2nc(NC3CCN(C(=O)c4cccc(C(F)(F)F)c4F)CC3)c3ncn(C4CCCC4)c3n2)CC1` [compound 12, trans-1-{4-[2-(4-Amino-cyclohexylamino)-9-cyclopentyl-9H-purin-6-ylamino]-piperidin-1-yl}-1-(2-fluoro-3-trifluoromethyl-phenyl)-methanone dihydrochloride], the “Conc. (ng/ml) in plasma” value [1, 2] is reported as “BLQ”, the Cls [1, 3] is reported as 19.6 mL/min/kg and the IC50 (PC-3; [4]) is reported as 0.48 µM.
With `Cl.Cl.N[C@H]1CC[C@H](Nc2nc(NC3CCN(C(=O)Oc4ccc(Br)cc4)CC3)c3ncn(C4CCCC4)c3n2)CC1` [compound 81, trans-4-[2-(4-Amino-cyclohexylamino)-9-cyclopentyl-9H-purin-6-ylamino]-piperidine-1-carboxylic acid 4-bromo-phenyl ester dihydrochloride] the “Conc. (ng/ml) in plasma” value [1, 5] was “BLQ”, the Cls [1, 6] was 75.8 mL/min/kg and the IC50 (PC-3; [7]) was 0.12 µM.
In the case of `COC(=O)c1ccc(OC(=O)N2CCC(Nc3nc(N[C@H]4CC[C@H](N)CC4)nc4c3ncn4C3CCCC3)CC2)cc1.Cl.Cl` [compound 83, trans-4-[2-(4-Amino-cyclohexylamino)-9-cyclopentyl-9H-purin-6-ylamino]-piperidine-1-carboxylic acid 4-methoxycarbonyl-phenyl ester dihydrochloride], the “Conc. (ng/ml) in plasma” value [1, 2] is reported as “BLQ”, the Cls [1, 3] is reported as 111.4 mL/min/kg and the IC50 (PC-3; [7]) is reported as 0.15 µM.
With `COc1ccc(OC(=O)N2CCC(Nc3nc(N[C@H]4CC[C@H](N)CC4)nc4c3ncn4C3CCCC3)CC2)cc1.Cl.Cl` [compound 84, trans-4-[2-(4-Amino-cyclohexylamino)-9-cyclopentyl-9H-purin-6-ylamino]-piperidine-1-carboxylic acid 4-methoxy-phenyl ester dihydrochloride] the “Conc. (ng/ml) in plasma” value [1, 5] was “BLQ”, the Cls [1, 6] was 51.8 mL/min/kg and the IC50 (PC-3; [7]) was 0.12 µM.
With `Cl.Cl.N[C@H]1CC[C@H](Nc2nc(NC3CCN(C(=O)Oc4ccc(F)cc4)CC3)c3ncn(C4CCCC4)c3n2)CC1` [compound 87, trans-4-[2-(4-Amino-cyclohexylamino)-9-cyclopentyl-9H-purin-6-ylamino]-piperidine-1-carboxylic acid 4-fluoro-phenyl ester dihydrochloride] the Cls [1, 8] was 97.4 mL/min/kg and the Conc. in plasma ([1]; Cassette #3, 24 h) was “BLQ^a”.
In the case of `Cl.Cl.N[C@H]1CC[C@H](Nc2nc(NC3CCN(C(=O)Oc4ccc(Cl)cc4)CC3)c3ncn(C4CCCC4)c3n2)CC1` [compound 88, trans-4-[2-(4-Amino-cyclohexylamino)-9-cyclopentyl-9H-purin-6-ylamino]-piperidine-1-carboxylic acid 4-chloro-phenyl ester dihydrochloride], the Cls [1, 8] is reported as 77.9 mL/min/kg, the Conc. in plasma ([1]; Cassette #3, 24 h) is reported as “BLQ” and the IC50 (PC-3; [7]) is reported as 0.1 µM.
For `Cl.Cl.N[C@H]1CC[C@H](Nc2nc(NC3CCN(C(=O)Oc4ccc([N+](=O)[O-])cc4)CC3)c3ncn(C4CCCC4)c3n2)CC1` [compound 89, trans-4-[2-(4-Amino-cyclohexylamino)-9-cyclopentyl-9H-purin-6-ylamino]-piperidine-1-carboxylic acid 4-nitro-phenyl ester dihydrochloride], the Cls [1, 9] was 136.5 mL/min/kg, the Conc. in plasma ([1]; Cassette #4, 24 h) was “BLQ” and the IC50 (PC-3; [7]) was 0.06 µM.
In the case of `Cl.Cl.N[C@H]1CC[C@H](Nc2nc(NC3CCN(S(=O)(=O)c4ccc(F)cc4)CC3)c3ncn(C4CCCC4)c3n2)CC1` [compound 106, trans-N^2-(4-Amino-cyclohexyl)-9-cyclopentyl-N^6-[1-(4-fluoro-benzenesulfonyl)-piperidin-4-yl]-9H-purine-2,6-diamine dihydrochloride], the Cls [1, 9] is reported as 113.7 mL/min/kg, the Conc. in plasma ([1]; Cassette #4, 8 h, Mean ± SD) is reported as “BLQ^a” and the Conc. in plasma ([1]; Cassette #4, 24 h) is reported as “BLQ”. For the same compound, the IC50 (PC-3; [4]) was 0.82 µM.
In the case of `Cl.Cl.N#Cc1ccc(S(=O)(=O)N2CCC(Nc3nc(N[C@H]4CC[C@H](N)CC4)nc4c3ncn4C3CCCC3)CC2)cc1` [compound 109, trans-N^2-(4-Amino-cyclohexyl)-9-cyclopentyl-N^6-[1-(4-cyano-benzenesulfonyl)-piperidin-4-yl]-9H-purine-2,6-diamine dihydrochloride], the “Conc. (ng/ml) in plasma” value [1, 2] is reported as “BLQ”, the Cls [1, 3] is reported as 45.1 mL/min/kg and the IC50 (PC-3; [4]) is reported as 0.32 µM.
With `COC(=O)c1ccccc1S(=O)(=O)N1CCC(Nc2nc(N[C@H]3CC[C@H](N)CC3)nc3c2ncn3C2CCCC2)CC1.Cl.Cl` [compound 111, trans-2-{4-[2-(4-Amino-cyclohexylamino)-9-cyclopentyl-9H-purin-6-ylamino]-piperidine-1-sulfonyl}-benzoic acid methyl ester dihydrochloride] the “Conc. (ng/ml) in plasma” value [1, 2] was “BLQ”, the Cls [1, 3] was 34.2 mL/min/kg and the IC50 (PC-3; [4]) was 0.76 µM.
In the case of `Cl.Cl.N[C@H]1CC[C@H](Nc2nc(NC3CCN(S(=O)(=O)c4cccc(C(F)(F)F)c4)CC3)c3ncn(C4CCCC4)c3n2)CC1` [compound 112, trans-N^2-(4-Amino-cyclohexyl)-9-cyclopentyl-N^6-[1-(3-trifluoromethyl-benzenesulfonyl)-piperidin-4-yl]-9H-purine-2,6-diamine dihydrochloride], the Cls [1, 8] is reported as 34.2 mL/min/kg, the Conc. in plasma ([1]; Cassette #3, 24 h) is reported as “BLQ” and the IC50 (PC-3; [4]) is reported as 0.16 µM.
For `Cl.Cl.N[C@H]1CC[C@H](Nc2nc(NC3CCN(C(=O)Nc4ccc(C(F)(F)F)cc4)CC3)c3ncn(C4CCCC4)c3n2)CC1` [compound 149, trans-4-[2-(4-Amino-cyclohexylamino)-9-cyclopentyl-9H-purin-6-ylamino]-piperidine-1-carboxylic acid (4-trifluoromethyl-phenyl)-amide dihydrochloride], the Cls [1, 8] was 49.1 mL/min/kg, the Conc. in plasma ([1]; Cassette #3, 24 h) was “BLQ” and the IC50 (PC-3; [4]) was 0.26 µM.
For `CCOC(=O)c1ccc(NC(=O)N2CCC(Nc3nc(N[C@H]4CC[C@H](N)CC4)nc4c3ncn4C3CCCC3)CC2)cc1.Cl.Cl` [compound 154, trans-4-[(1-{4-[2-(4-Amino-cyclohexylamino)-9-cyclopentyl-9H-purin-6-ylamino]-piperidin-1-yl}-methanoyl)-amino]-benzoic acid ethyl ester dihydrochloride], the “Conc. (ng/ml) in plasma” value ([1]; Cassette #2, single 18 mg/kg intravenous cassette dose, 8 h, Mean ± SD) was “BLQ^a”, the “Conc. (ng/ml) in plasma” value [1, 5] was “BLQ^a” and the Cls [1, 6] was 31.6 mL/min/kg. For the same compound, the IC50 (PC-3; [4]) was 0.23 µM.
